Results reported in patent US20260034119A1, “5-METHOXY-N,N-[…][…], THEIR […], AND METHODS FOR TREATMENT OF NEUROLOGICAL, […], AND SUBSTANCE USE DISORDERS” (priority 2023, published 2026).

Experiments:
C57BL/6J mice = assay: Sucrose preference test after chronic social defeat stress; format: in vivo, mouse; conditions: stressed mice
Text: The sucrose preference test is a volitional two-bottle choice procedure in which mice are given the choice between consuming water and a 1% sucrose solution. This paradigm has been used extensively to assess the effects of stress-induced anhedonia. On day 10 of CSDS mice were individually housed and habituated to two bottles containing just water. Twenty-four hours later, following the SI test, one bottle was replaced with a 1% sucrose solution (w/v) made with water from the animal vivarium. Mice had ad libitum overnight access to both bottles and preference for sucrose over water was calculated as follows: [sucrose/(sucrose+water)*100]. Data were averaged from two independent experiments. A total of 27 mice were administered vehicle (9 control, 18 stress), 27 received 4-F, 5-MeO-PyrT (9 control, 18 stress), 15 received WAY-100635 (5 control, 10 stress), and 15 received 4-F, 5-MeO-PyrT+WAY-100635 (5 control, 10 stress). More animals were used for the stressed groups due to the inherent resilience of mice to social defeat stress (Krishnan et al. 2007). Analysis of different treatment conditions of control and stressed animals was done in GraphPad Prism using two-way ANOVA.

OCT2 = target: T1, OCT2 (Homo sapiens, UniProt O15244); assay: OCT2 uptake inhibition; format: cell-based; conditions: compared with 5-HT1A
T1 construct: expressed in transfected cells; host or cells: Flp-In T-Rex cell line (ThermoFisher), tetracycline-induced
T1 sequence (O15244 1-555): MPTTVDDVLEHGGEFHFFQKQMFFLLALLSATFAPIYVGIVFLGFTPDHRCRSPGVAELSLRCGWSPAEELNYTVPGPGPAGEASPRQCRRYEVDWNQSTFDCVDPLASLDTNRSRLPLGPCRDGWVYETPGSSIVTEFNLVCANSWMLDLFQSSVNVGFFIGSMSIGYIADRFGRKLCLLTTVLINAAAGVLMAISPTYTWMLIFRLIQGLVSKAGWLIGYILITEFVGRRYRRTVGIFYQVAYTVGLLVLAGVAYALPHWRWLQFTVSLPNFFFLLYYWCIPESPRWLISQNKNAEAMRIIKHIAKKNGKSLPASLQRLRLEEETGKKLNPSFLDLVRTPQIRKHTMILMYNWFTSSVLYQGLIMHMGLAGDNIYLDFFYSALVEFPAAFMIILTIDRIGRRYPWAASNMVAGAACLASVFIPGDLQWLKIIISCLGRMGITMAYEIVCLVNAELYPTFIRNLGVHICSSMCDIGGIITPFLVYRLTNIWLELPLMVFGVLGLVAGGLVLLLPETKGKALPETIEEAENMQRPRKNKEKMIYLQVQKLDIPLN
Method: (§1) Inducible cell lines stably expressing OCT1, OCT2, or PMAT were generated using the Flp-In T-Rex cell line (ThermoFisher) according to manufacturer recommendations. Cells were maintained in DMEM supplemented with 10% FBS, 100 μg/ml hygromycin B (GoldBio), and 10 μg/ml blasticidin (GoldBio). To measure uptake inhibition, cells were seeded into poly-L-lysine coated clear-bottom 384-well plates at a density of 25,000 cells per well in DMEM containing 10% FBS and 2 μg/ml of tetracycline (Sigma) to induce transporter expression. […] Cells were incubated with drug for 30 min at 37° C. Fluorescent substrate was then added to the cells. […] Cells were incubated with respective substrates for an hour at 37° C. OCT2 cells were read directly in a Victor NIVO plate reader using 495 nm excitation and 580 emission filter for 0.1 s. OCT1 and PMAT cells were washed in HBSS supplemented with 20 mM HEPES pH 7.4 before reading in a Victor NIVO plate reader using 435 nm excitation and 480 nm emission filter for 0.1 s.

PMAT = target: T2, PMAT (Homo sapiens, UniProt Q7RTT9); assay: PMAT uptake inhibition; format: cell-based; conditions: compared with 5-HT1A
T2 construct: expressed in transfected cells; host or cells: Flp-In T-Rex cell line (ThermoFisher), tetracycline-induced
T2 sequence (Q7RTT9 1-530): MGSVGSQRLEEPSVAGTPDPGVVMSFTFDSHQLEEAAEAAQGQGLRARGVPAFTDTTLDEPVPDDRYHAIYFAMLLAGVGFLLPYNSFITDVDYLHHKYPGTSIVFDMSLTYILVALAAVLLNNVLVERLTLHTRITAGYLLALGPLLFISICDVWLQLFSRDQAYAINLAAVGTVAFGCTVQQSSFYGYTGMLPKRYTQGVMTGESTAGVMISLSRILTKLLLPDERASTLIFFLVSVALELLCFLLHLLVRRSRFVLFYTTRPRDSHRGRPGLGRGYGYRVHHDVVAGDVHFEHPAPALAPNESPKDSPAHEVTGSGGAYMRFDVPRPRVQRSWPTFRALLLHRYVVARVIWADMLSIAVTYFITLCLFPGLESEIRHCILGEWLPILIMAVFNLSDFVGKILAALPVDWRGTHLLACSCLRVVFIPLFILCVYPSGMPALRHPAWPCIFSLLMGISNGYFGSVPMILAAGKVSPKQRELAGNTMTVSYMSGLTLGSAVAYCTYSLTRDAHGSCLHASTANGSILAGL
Method: as §1

5-HT1A A365N = target: T3, 5-HT1A A365N (Homo sapiens, UniProt P08908, A365N); assay: Gi1 BRET at mutant 5-HT1A A365N; format: cell-based; conditions: Gi1 BRET, 5-HT1A A365N^6.55
T3 construct: expressed in transfected cells; host or cells: HEK293-T
T3 sequence (P08908 1-422 A365N): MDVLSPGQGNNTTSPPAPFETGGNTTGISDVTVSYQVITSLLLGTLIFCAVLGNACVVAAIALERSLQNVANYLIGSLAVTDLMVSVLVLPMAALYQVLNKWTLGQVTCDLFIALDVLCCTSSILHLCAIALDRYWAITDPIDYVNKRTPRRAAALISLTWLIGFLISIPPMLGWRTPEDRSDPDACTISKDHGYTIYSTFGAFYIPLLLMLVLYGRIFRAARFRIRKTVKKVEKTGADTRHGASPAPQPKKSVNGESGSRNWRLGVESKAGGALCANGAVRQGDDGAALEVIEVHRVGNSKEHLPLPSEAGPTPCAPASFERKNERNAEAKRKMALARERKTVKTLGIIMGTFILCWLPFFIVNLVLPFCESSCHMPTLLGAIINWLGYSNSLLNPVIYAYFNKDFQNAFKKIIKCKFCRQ

5-HT1A = 5-HT1A (Homo sapiens, UniProt P08908); assay: BRET signaling assay: 5-HT1A-mediated activation of heterotrimeric Gi1 (TRUPATH, HEK293-T)
Sequence of 5-HT1A (P08908 whole entry): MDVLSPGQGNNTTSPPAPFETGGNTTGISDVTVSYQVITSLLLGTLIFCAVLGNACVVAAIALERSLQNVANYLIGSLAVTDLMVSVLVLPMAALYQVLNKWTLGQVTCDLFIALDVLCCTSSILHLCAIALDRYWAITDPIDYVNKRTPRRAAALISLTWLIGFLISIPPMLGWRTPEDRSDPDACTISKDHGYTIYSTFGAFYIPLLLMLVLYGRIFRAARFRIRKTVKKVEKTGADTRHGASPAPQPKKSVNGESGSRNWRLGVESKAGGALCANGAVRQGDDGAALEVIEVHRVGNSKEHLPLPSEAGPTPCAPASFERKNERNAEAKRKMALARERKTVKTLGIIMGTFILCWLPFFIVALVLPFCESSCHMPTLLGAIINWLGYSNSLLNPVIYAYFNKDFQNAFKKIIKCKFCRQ

Structure (SMILES): COc1ccc2[nH]cc(CCN3CCCC3)c2c1F [4-F, 5-MeO-PyrT, 4-Fluoro, 5-methoxypyrrolidinyl-tryptamine]
- effect on sucrose preference under WAY-100635 co-administration (C57BL/6J mice): reversed the effects
- sucrose preference (C57BL/6J mice; relative to vehicle-treated animals): significantly increased sucrose preference
- activity at other neurotransmitter transporters (OCT2) (OCT2): substantially lower activity
- activity at other neurotransmitter transporters (PMAT) (PMAT): substantially lower activity
- pEC50 (5-HT1A A365N): (8.29,
- EC50 (5-HT1A A365N; read-out: EC50): 5.08 nM
- Emax, 5-HT1A-mediated activation of Gi1 (BRET) (5-HT1A): 102.8 % of 5-HT
- pEC50 (5-HT1A; Gi1 BRET, 5-HT1A WT): (9.43,
- EC50 (5-HT1A; read-out: Gi BRET EC50): 0.37 nM
